Drawing on patent US8278311B2, “Substituted pyrimidine derivatives” (Abbott Laboratories, priority 2008, dated 2012), this text covers Potency and Ki for 22 molecules.

Like-named read-outs stand apart in the source and are kept apart here.

A word on the Ki: it is a dissociation constant, usually derived from enzyme kinetics or from competition with a known ligand.

In assay [1] the target is T1, histamine H4 receptor (Homo sapiens, UniProt Q9H3N8).
T1 construct: expressed in transfected cells
The assay can be described thus: in vitro assay of histamine H4 activity using FLIPR-Ca+2 flux. The format is cell-based. The note with it: HEK-293 cells stably expressing histamine H4 receptor and Gαqi5, Fluo-4; Kb for antagonists and inverse agonists, EC50 for partial agonists. An excerpt: There are many methods available to show the effectiveness of compounds as histamine H4 receptor ligands. Histamine H4 receptors from mammalian species have been cloned. Methods to clone, express, and assess the potency and functional activity of such cloned genes are well known to those skilled in the art of molecular biology. Examples of methods of cloning and expressing histamine H4 receptors, and of assessing the potency and functional activity are described in Nguyen, et al. Molecular Pharmacology (2001) vol. 59 pp. 427-433; Zhu, et al. Molecular Pharmacology (2001) vol. 59 pp. 434-441; Coge, et al., Biochemical and Biophysical Research Communications (2001) vol. 284, pp. 301-309; Liu, et al. Molecular Pharmacology (2001) vol. 59 pp. 420-426; Liu, et al. Journal of Pharmacology and Experimental Therapeutics (2001) v. 299, pp. 121-130; and Thurmond, et al. Journal of Pharmacology and Experimental Therapeutics (2004) v. 309, pp. 404-413. In the present case, to determine the potency and effectiveness of representative compounds of this invention as histamine-H4 receptor ligands (H4 receptor ligands), the following tests were conducted according to previously described methods (see Esbenshade, et al., Biochemical Pharmacology (2004), vol. 68, pp. 933-945, and in Krueger, et al., Journal of Pharmacology and Experimental Therapeutics (2005) v. 314, pp. 271-281): histamine H4 receptors were cloned and stably expressed in HEK-293 (human embryonic kidney) cells coexpressing a Gαqi5. Before testing, cells are loaded with a Ca+^2 sensitive fluorescent dye, in this case Fluo-4 (Invitrogen, Carlsbad, Calif.). In the case of partial agonist or agonist ligands, addition of compound to the cells leads to the increase in intracellular Ca^+2 which is detected by FLIPR (Fluorescence Imaging Plate Reader; Molecular Devices, Sunnyvale, Calif.) technology. In a similar manner, compounds that are antagonists or inverse agonists, block the increase in fluorescence induced by the full histamine H4 agonist histamine, and partial agonists reduce the amount of fluorescence induced by the full histamine H4 agonist histamine. The fluorescence intensities measured before addition of the test compound are subtracted from the fluorescence intensities at later time points. Peak response values determined at each concentration of ligand are expressed as a percentage of the response obtained with the full agonist histamine. Concentration versus response data are analyzed to obtain compound potency as Kb values for antagonists and inverse agonists and as EC50 values for partial agonists.

Assay [2] has as its target T1, histamine H4 receptor. The assay can be described thus: 3H-histamine competition binding assay. The procedure: The potency of compounds of the invention in displacing ^3H-histamine in competition binding assays is assessed by methods described in Esbenshade, et al., Biochemical Pharmacology (2004), vol. 68, pp. 933-945. In this assay, membranes were prepared from HEK-293 cells transiently transfected with the pClNeo expression vector harboring the histamine H4 receptor by homogenization of the cells on ice in TE buffer (50 mM Tris-HCl buffer, pH 7.4, containing 5 mM EDTA), 1 mM benzamidine, 2 μg/mL aprotinin, 1 μg/mL leupeptin, and 1 μg/mL pepstatin. The homogenate was centrifuged at 40,000 g for 20 minutes at 4° C. This step was repeated, and the resulting pellet was resuspended in TE buffer. Aliquots were frozen at −70° C. until needed. On the day of assay, membranes were thawed and diluted with TE buffer. Competition radioligand binding assays were performed with increasing concentrations of test compound in the presence of [^3H]-histamine incubated at 25° C. for 1 hour in a total volume of 0.5 mL of 50 mM Tris, 5 mM EDTA, pH 7.4. All binding reactions were terminated by filtration under vacuum onto polyethylenimine (0.3%) presoaked Unifilters (PerkinElmer Life Sciences) or Whatman GF/B filters (Whatman, Clifton, N.J.) followed by three brief washes with 4 mL of ice-cold TE buffer. Bound radiolabel was determined by liquid scintillation counting. For all of the radioligand competition binding assays, IC50 values and Hill slopes were determined by Hill transformation of the data and Ki values were determined by the Cheng-Prusoff equation. The following table of representative histamine H4 receptor ligands is provided, along with potency values: […]

[3] abbreviates: membranes of HEK-293 cells transiently transfected with histamine H4 receptor, [3H]-histamine, 25° C., 1 hour, read-out: Binding assay Potency (Ki).

T1 sequence (Q9H3N8 whole entry, species assumed): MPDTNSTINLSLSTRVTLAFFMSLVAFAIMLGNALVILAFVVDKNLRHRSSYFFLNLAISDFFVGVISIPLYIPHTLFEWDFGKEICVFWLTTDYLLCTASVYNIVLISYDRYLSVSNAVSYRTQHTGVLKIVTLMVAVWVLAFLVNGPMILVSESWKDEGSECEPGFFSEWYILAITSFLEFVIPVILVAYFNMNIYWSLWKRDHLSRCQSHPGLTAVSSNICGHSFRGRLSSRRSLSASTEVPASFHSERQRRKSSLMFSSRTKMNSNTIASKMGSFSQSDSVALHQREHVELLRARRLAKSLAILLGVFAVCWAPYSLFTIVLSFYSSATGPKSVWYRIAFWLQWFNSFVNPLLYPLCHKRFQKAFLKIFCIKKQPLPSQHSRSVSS

Consider `CN1CCN(c2nc(N)nc3c2CCC2=C3C3CCCCC3O2)CC1` (centres unmarked) [Example 6, 4-(4-methylpiperazin-1-yl)-5,6,7a,8,9,10,11,11a-octahydro[1]benzofuro[2,3-h]quinazolin-2-amine], for which the Potency on histamine H4 receptor [1] came out at 25 nM.

On histamine H4 receptor [1], `Nc1nc(N2C[C@H]3CNC[C@H]32)c2ccc3c(c2n1)C1CCCCC1O3` (stereo partly drawn) [Example 8, 4-[(1R,5S)-3,6-diazabicyclo[3.2.0]hept-6-yl]-7a,8,9,10,11,11a-hexahydro[1]benzofuro[2,3-h]quinazolin-2-amine] showed a Potency of 61.7 nM. On histamine H4 receptor [1], `Nc1nc2c(c(N3C[C@H]4CCCN[C@H]4C3)n1)CCCC1C3C=CC(CC3)C21` (relative stereo) [Example 24, 4-cis-octahydro-6H-pyrrolo[3,4-b]pyridin-6-yl-6,7,7a,8,11,11a-hexahydro-5H-8,11-ethanobenzo[6,7]cyclohepta[1,2-d]pyrimidin-2-amine] showed a Potency of 91.2 nM. `Nc1nc2c(c(N3CCCN(C4CCC4)CC3)n1)CCC1=C2C2CCCCC2O1` (centres unmarked) [Example 11, 4-(4-cyclobutyl-1,4-diazepan-1-yl)-5,6,7a,8,9,10,11,11a-octahydro[1]benzofuro[2,3-h]quinazolin-2-amine] yielded a Potency on histamine H4 receptor [1] of 2000 nM. On to `CN[C@@H]1CCN(c2nc(N)nc3c2CCC2=C3C3CCCCC3O2)C1` (stereo partly drawn) [Example 2, 4-[(3R)-3-(methylamino)pyrrolidin-1-yl]-5,6,7a,8,9,10,11,11a-octahydro[1]benzofuro[2,3-h]quinazolin-2-amine], for which, at histamine H4 receptor [1], the Potency was 5.9 nM. Moreover, at histamine H4 receptor [2] (setting [3]), the Ki is 3.3 nM.

As for `CC(C)N1CCCN(c2nc(N)nc3c2CCC2=C3C3CCCCC3O2)CC1` (centres unmarked) [Example 10, 4-(4-isopropyl-1,4-diazepan-1-yl)-5,6,7a,8,9,10,11,11a-octahydro[1]benzofuro[2,3-h]quinazolin-2-amine], the Potency on histamine H4 receptor [1] was determined as 1260 nM. In the case of `CN[C@@H]1CCN(c2nc(N)nc3c2CC[C@@H]2CCCC[C@@H]32)C1` (mixture of isomers) [Example 16, trans-4-[(3R)-3-(methylamino)pyrrolidin-1-yl]-5,6,6a,7,8,9,10,10a-octahydrobenzo[h]quinazolin-2-amine], the Potency on histamine H4 receptor [1] stood at 1.4 nM. Besides, the Ki on histamine H4 receptor [2] (setting [3]) amounted to 2.6 nM. Take `Nc1nc2c(c(N3CCNCC3)n1)CCCC1C3C=CC(CC3)C21` (centres unmarked) [Example 26, 4-piperazin-1-yl-6,7,7a,8,11,11a-hexahydro-5H-8,11-ethanobenzo[6,7]cyclohepta[1,2-d]pyrimidin-2-amine]: the Potency at histamine H4 receptor [1] amounted to 60.3 nM. Same read-out and setting: for `CN1CCCN(c2nc(N)nc3c2CCC2=C3C3CCCCC3O2)CC1` (centres unmarked) [Example 5, 4-(4-methyl-1,4-diazepan-1-yl)-5,6,7a,8,9,10,11,11a-octahydro[1]benzofuro[2,3-h]quinazolin-2-amine] the value was 16 nM. For the molecule `Nc1nc2c(c(N3CCNCC3)n1)CC[C@@H]1CCCC[C@@H]21` (relative stereo) [Example 12, trans-4-piperazin-1-yl-5,6,6a,7,8,9,10,10a-octahydrobenzo[h]quinazolin-2-amine], the Potency at histamine H4 receptor [1] was 6.9 nM. At histamine H4 receptor [2] (setting [3]), the inhibition constant Ki was found to be 2 nM. The molecule `Nc1nc2c(c(N3CC[C@@H](N)C3)n1)CC[C@@H]1CCCC[C@H]21` (mixture of isomers) [Example 20, cis-4-[(3R)-3-aminopyrrolidin-1-yl]-5,6,6a,7,8,9,10,10a-octahydrobenzo[h]quinazolin-2-amine] returned a Potency on histamine H4 receptor [1] of 1.4 nM. The molecule `CCNC1CN(c2nc(N)nc3c2CC[C@@H]2CCCC[C@H]32)C1` (relative stereo) [Example 23, cis-4-[3-(ethylamino)azetidin-1-yl]-5,6,6a,7,8,9,10,10a-octahydrobenzo[h]quinazolin-2-amine] registered a Potency on histamine H4 receptor [1] of 3.0 nM. As to `CCNC1CN(c2nc(N)nc3c2CC[C@@H]2CCCC[C@@H]32)C1.O=C(O)C(F)(F)F.O=C(O)C(F)(F)F` (relative stereo) [Example 15, trans-4-[3-(ethylamino)azetidin-1-yl]-5,6,6a,7,8,9,10,10a-octahydrobenzo[h]quinazolin-2-amine bis(trifluoroacetate)], the Potency at histamine H4 receptor [1] was determined as 3.2 nM. The inhibitory constant (Ki) at histamine H4 receptor [2] (setting [3]) stood at 1 nM.

With `Nc1nc2c(c(N3CC[C@@H](N)C3)n1)CC[C@@H]1CCCC[C@@H]21` (mixture of isomers) [Example 17, trans-4-[(3R)-3-aminopyrrolidin-1-yl]-5,6,6a,7,8,9,10,10a-octahydrobenzo[h]quinazolin-2-amine], at histamine H4 receptor [1], the Potency came to 1.2 nM. Molecule `CN[C@@H]1CCN(c2nc(N)nc3c2CC[C@@H]2CCCC[C@H]32)C1` (mixture of isomers) [Example 19, cis-4-[(3R)-3-(methylamino)pyrrolidin-1-yl]-5,6,6a,7,8,9,10,10a-octahydrobenzo[h]quinazolin-2-amine] showed a Potency on histamine H4 receptor [1] of 1.6 nM.

As to `Nc1nc2c(c(N3CCCNCC3)n1)CCC1=C2C2CCCCC2O1` (centres unmarked) [Example 9, 4-(1,4-diazepan-1-yl)-5,6,7a8,9,10,11,11a-octahydro[1]benzofuro[2,3-h]quinazolin-2-amine], on histamine H4 receptor [1], the Potency was determined as 16 nM. Regarding `Nc1nc2c(c(N3CC4CCCNC4C3)n1)CCC1CCCCC21` (stereo not drawn) [Example 18, trans-4-[cis-octahydro-6H-pyrrolo[3,4-b]pyridin-6-yl]-5,6,6a7,8,9,10,10a-octahydrobenzo[h]quinazolin-2-amine], at histamine H4 receptor [1], the Potency was 4.9 nM. The inhibition constant (Ki) on histamine H4 receptor [2] was 2.6 nM. `Nc1nc(N2CC[C@@H](N)C2)c2ccc3c(c2n1)C1CCCCC1O3` (stereo partly drawn) [Example 7, 4-[(3R)-3-aminopyrrolidin-1-yl]-7a,8,9,10,11,11a-hexahydro[1]benzofuro[2,3-h]quinazolin-2-amine] came in with a Potency on histamine H4 receptor [1] of 4.1 nM. Besides, the Ki at histamine H4 receptor [2] (setting [3]) was 12.6 nM. In the case of `CNC1CN(c2nc(N)nc3c2CC[C@@H]2CCCC[C@@H]32)C1.O=C(O)C(F)(F)F.O=C(O)C(F)(F)F` (relative stereo) [Example 14, trans-4-[3-(methylamino)azetidin-1-yl]-5,6,6a,7,8,9,10,10a-octahydrobenzo[h]quinazolin-2-amine bis(trifluoroacetate)], the Potency at histamine H4 receptor [1] was 1.5 nM. In addition, on histamine H4 receptor [2] (setting [3]), the Ki worked out at 0.9 nM. `CNC1CN(c2nc(N)nc3c2CC[C@@H]2CCCC[C@H]32)C1` (relative stereo) [Example 22, cis-4-[3-(methylamino)azetidin-1-yl]-5,6,6a,7,8,9,10,10a-octahydrobenzo[h]quinazolin-2-amine]: the Potency at histamine H4 receptor [1] was determined as 3.0 nM. `Nc1nc2c(c(N3C[C@H]4CCCN[C@H]4C3)n1)CC[C@@H]1CCCC[C@H]21` (relative stereo) [Example 21, cis-4-[cis-octahydro-6H-pyrrolo[3,4-b]pyridin-6-yl]-5,6,6a,7,8,9,10,10a-octahydrobenzo[h]quinazolin-2-amine] yielded a Potency on histamine H4 receptor [1] of 8.3 nM.

Molecule `Nc1nc2c(c(N3C[C@H]4CCCN[C@H]4C3)n1)CCCC1C3CCC(CC3)C21` (relative stereo) [Example 27, 4-cis-octahydro-6H-pyrrolo[3,4-b]pyridin-6-yl-6,7,7a,8,9,10,11,11a-octahydro-5H-8,11-ethanobenzo[6,7]cyclohepta[1,2-d]pyrimidin-2-amine] had a Potency on histamine H4 receptor [1] of 89.1 nM.
